# Reference: US10653658B2, “Biofilm inhibiting compositions enhancing weight gain in livestock” (Akeso Biomedical, Inc., priority 2015, dated 2020)
# Legend:
# Campylobacter [1] = test: Campylobacter carriage in chickens, cfu/g of droppings and caeca at day 42 (Example 1); format: in vivo
# Protocol: (§1) A study was performed to evaluate growth promotion and reduction of Campylobacter carriage using FeQ and FeTyr in Ross 308 male broilers with 7 treatment groups. Each treatment group comprised four replicates of 10 birds per pen (40 birds/treatment group and 4 pens of 10 birds/treatment group), with 2 control groups and 5 test groups. All the test groups and one of the control groups were exposed at day 20 of the trial to dirty litter, which tested positive for Campylobacter. This method was used to provide a more natural method to Campylobacter challenge the birds. Thus there was a positive control where one treatment group was challenged with Campylobacter and one negative control group where the birds were not challenged, and five treatment groups that were all challenged with Campylobacter. The total number of birds used in the 7 treatment groups was 280. Treatment group 1 was a negative control where birds just received the commercial feed, and were not challenged with dirty litter containing Campylobacter. Treatment group 2 was the positive control where the birds received the commercial feed, and were challenged with dirty litter containing Campylobacter at day 20. Treatment group 3 received 0.22 g/L of FeQ in their drinking water and 0.22 g/Kg FeQ in their feed during the entire trial, and was challenged with dirty litter containing Campylobacter at day 20. Treatment group 5 received 0.22 g/L of FeQ in their drinking water during the entire trial, and was challenged with dirty litter containing Campylobacter at day 20. Treatment group 6 received 0.22 g/kg FeQ in their feed during the entire trial, and was challenged with dirty litter containing Campylobacter at day 20. Treatment group 7 received 0.022 g/L FeQ in their drinking water during the entire trial, and was challenged with dirty litter containing Campylobacter at day 20. Treatment group 8 received 0.02 g/L FeTyr in their drinking water during the entire trial, and was challenged with dirty litter containing Campylobacter at day 20. The FeTyr was pre-dissolved in DMSO, and diluted to provide a solution of 0.02 g/L of FeTyr in water. (An additional treatment group 4 was terminated due to solubility issues.)
# (§2) Prior to challenging the chickens with dirty litter containing Campylobacter at day 20, each pen was tested for Campylobacter using cloacal swabs. All pens tested negative for Campylobacter prior to the challenge. At day 20, litter, which was naturally Campylobacter-contaminated, was tested to confirm the presence of Campylobacter, and then added (approximately 2 kg/pen) to the litter in all pens except in pens for treatment group 1 (the negative control). At day 28, the pen litter was sampled to confirm the presence or absence of Campylobacter. At day 41 and 42, caecal samples were taken from 3 birds per pen (12 birds per treatment group) and tested for Campylobacter enumeration. At day 42, digesta, fecal samples, and caecal content was taken from all birds, and pooled per pen. Two birds per pen were also taken from treatment groups 1-3, euthanized, and blood samples taken. Samples were analyzed for blood chemistry, including analysis for alkaline phosphatase, aspartate amino transferase, alanine amino transferase, gamma-glutamyl transferase, lactate dehydrogenase, total protein, albumin, globulin, amylase and glucose.
# Salmonella = Salmonella cfu/g of caeca at day 42 (Example 10); format: in vivo; conditions: in feed
# Protocol: (§3) A study was performed to evaluate growth promotion and reduction of Campylobacter carriage using FeTyr in Ross 308 male broilers with 7 treatment groups. Each treatment group comprised eight replicates of 10 birds per pen (80 birds/treatment group), with 2 control groups and […]. All the test groups and both of the control groups were exposed at day 20 of the trial to dirty litter, which tested positive for Campylobacter. This method was used to provide a more natural method to Campylobacter challenge the birds. Thus there were two positive controls where each treatment group was challenged with Campylobacter, and five treatment groups that were all challenged with Campylobacter. The total number of birds used in the 7 treatment groups was 560.
# (§4) At day 20, litter, which was naturally Campylobacter-contaminated, was tested to confirm the presence of Campylobacter, and then added (approximately 2 kg/pen) to the litter in all pens. At day 42, caecal samples were taken and tested for Campylobacter, E. coli and Salmonella enumeration.
# [2] = Growth performance of broilers given FeQ or FeTyr in water/feed, dirty litter Campylobacter challenge at day 20 (Example 1); format: in vivo, Ross 308 male broilers
# Protocol: as §1
# The birds were fed with a commercial three-phase feeding program using starter, grower and finisher feeds with formulations shown in Table 2. All diets had coccidiostat (MAXIBAN® at 0.0625% in starter and […] and MONTEBAN® at 0.06% in finisher phase). Xylanase (RONOZYME® WX at 200 g per ton) and phytase (RONOZYME® P at 150 grams per ton) were added to all diets.
# The feeding program is show in Table 3. The birds were reared in floor pens to day 42, and fed starter, grower and finisher feed at day 0 to 11, 11 to 24, and 24 to 42 days, respectively. All birds were weighed individually and feed weigh backs recorded per pen at day 0, 11, 21, 24 and 42 days.
# as §2, with “Samples were analyzed for blood chemistry, including analysis for alkaline phosphatase, aspartate amino transferase, alanine amino transferase, gamma-glutamyl transferase, lactate dehydrogenase, total protein, albumin, globulin, amylase and glucose.” left out
# [3] = Dose ranging study of FeTyr (TYPLEX) in feed, zootechnical performance of broilers, dirty litter challenge at day 20 (Example 10); format: in vivo, Ross 308 male broilers; conditions: all treatment groups, in feed
# Protocol: as §3
# Treatment group 1 was a positive control where birds just received the commercial feed, and were challenged with dirty litter containing Campylobacter at day 20. Treatment group 2 received 0.01 g/kg of TYPLEX (FeTyr) in their feed, and were challenged with dirty litter containing Campylobacter at day 20. Treatment group 3 received 0.02 g/kg of TYPLEX (FeTyr) in their feed, and was challenged with dirty litter containing Campylobacter at day 20. Treatment group 4 received 0.05 g/kg of TYPLEX (FeTyr) in their feed, and was challenged with dirty litter containing Campylobacter at day 20. Treatment group 5 received 0.1 g/kg of TYPLEX (FeTyr) in their feed, and was challenged with dirty litter containing Campylobacter at day 20. Treatment group 6 received 0.2 g/kg of TYPLEX (FeTyr) in their feed, and was challenged with dirty litter containing Campylobacter at day 20. […] The birds were fed with a commercial three-phase feeding program using starter, grower and finisher feeds as described in Example 1. The birds were reared in floor pens to day 42, and fed starter, grower and finisher feed at day 0 to 11, 11 to 24, and 24 to 42 days, respectively. All birds were weighed individually and feed weigh backs recorded per pen at day 0, 11, 21, 24 and 42 days.
# as §4
# In order to minimize risk of cross-contamination, standard industry biosecurity measures were used including: disinfecting boots, changing overshoes and gloves between pens/treatments, entering Campylobacter negative pens before entering Campylobacter positive pens, and leaving adjacent pens empty. Daily health, culls, and mortality were recorded. All bird weights were recorded at 0, 11, 21, 24, 33 and 42 days. Weight gains, feed intake and feed conversion ratio (FCR) were derived for each feeding period.
# Campylobacter [4] = test: Campylobacter cfu/g of caeca at day 42 (Example 10); format: in vivo; conditions: in feed
# Protocol: as §3, §4
# E. coli = E. coli cfu/g of caeca at day 42 (Example 10); format: in vivo
# Protocol: as §3, §4
compound,measurement,setting,value
"N[C@@H](Cc1ccc(O)cc1)C(=O)O.[Fe+3] [FeTyr, ferric tyrosine]",Campylobacter cfu/g of caeca samples at day 42 compared with positive control (FIG. 4),Campylobacter [1]; treatment groups 3 and 5-8,positive effect on reducing Campylobacter infection
same,Campylobacter cfu/g of bird droppings at day 42 compared with positive control (FIG. 3),Campylobacter [1]; treatment groups 3 and 6-8,positive effect on reducing Campylobacter infection
same,Salmonella cfu/g of caeca at day 42 (FIG. 15),Salmonella,positive effect on reducing Campylobacter infection
same,"effect on growth performance in the absence of Campylobacter challenge, first 20 days",[2]; compared with control groups 1 and 2,positive effect
same,effect on MFCR at day 42 compared with positive control (FIG. 2),"[2]; treatment groups 3, 5, 6, 7 and 8, challenged with dirty litter",positive effect on MFCR
same,effect on growth: average body weight at day 42 compared with positive control (FIG. 1),"[2]; treatment groups 3, 5, 6, 7 and 8, challenged with dirty litter containing Campylobacter",positive effect on growth
same,MFCR at day 42 compared to control group (FIG. 13),[3],improved MFCR values
same,average body weight at day 42 compared with control group (FIG. 12),[3],higher average body weight
same,Campylobacter cfu/g of caeca at day 42 (FIG. 14),Campylobacter [4],positive effect on reducing Campylobacter infection
same,E. coli cfu/g of caeca at day 42 (FIG. 16),E. coli; in feed,positive effect on reducing Campylobacter infection
same,levels of E. coli in poultry upon treatment,E. coli; poultry data,lower levels of E. coli
